Reference: patent publication US11564911B2, “Small molecule dual-inhibitors of TRPV4 and TRPA1 for sanitizing and anesthetizing” (Duke University, priority 2016, dated 2023)

Columns and labels:
[1] = Assessment of hepatic, renal and cardiac function in treated mice; assay type: in vivo, mouse; conditions: 10 mg/kg i.p., vs vehicle; for heart rate (EKG): over 1 h, at the 6 h time-point
Experimental: Mice were treated i.p. with compounds 16-8 and 16-19 (10 mg/kg). Hepatic and renal integrity were analyzed by alanine amino-transferase- and creatinine assays (Sigma), both relying on measurement of absorbance at λ=570 nm in 96-well micro-titerplates. 8 technical replicates per animal were performed.
For heart rate assessment in mice treated with 16-8 and 16-19, animals were fitted with two electrodes, one to the ear, via clip, one to the rib-cage, using firm adhesive. Heart rate was monitored and analyzed using axoscope and clampfit 9.2 software (Molecular Devices)

N2a cells = assay: Cell viability (resazurin) of N2a cells; assay type: cell-based; conditions: 48 h; for cellular toxicity vs inhibitory potency against TRPV4/TRPA1, factor: mouse
Experimental: FIGS. 30A-30B: Cellular toxicity studies of compounds 16-8 and 16-19. N2a cells were subjected to increasing concentrations of compounds 16-8 and 16-19, resulting cell viability was analyzed for the next 48 h. (FIG. 30A) Time course of cell viability in the presence of various concentrations of 16-8. […] Representative result of 2 independent experiments.
N2a cells were cultured in 96 well plates for 24-48 h. Cell viability studies relied on metabolic capability monitored with the indicator dye resazurin. Its reduction to resorufin (indicated by color change dark blue to pink) was monitored over time. Changes in absorbance at λ=570 nm were recorded using a microplate reader (Molecular Devices). […] Eight replicate cultures per experimental point were studied.

human TRPV1 = target: T1, human TRPV1 (Homo sapiens, UniProt Q8NER1); assay: Ca2+ signal in N2a cells transfected with human TRPV1 (capsaicin); assay type: cell-based; conditions: 5 μM capsaicin stimulation
T1 construct: expressed in transfected cells; host or cells: N2a cells
T1 sequence (Q8NER1 whole entry): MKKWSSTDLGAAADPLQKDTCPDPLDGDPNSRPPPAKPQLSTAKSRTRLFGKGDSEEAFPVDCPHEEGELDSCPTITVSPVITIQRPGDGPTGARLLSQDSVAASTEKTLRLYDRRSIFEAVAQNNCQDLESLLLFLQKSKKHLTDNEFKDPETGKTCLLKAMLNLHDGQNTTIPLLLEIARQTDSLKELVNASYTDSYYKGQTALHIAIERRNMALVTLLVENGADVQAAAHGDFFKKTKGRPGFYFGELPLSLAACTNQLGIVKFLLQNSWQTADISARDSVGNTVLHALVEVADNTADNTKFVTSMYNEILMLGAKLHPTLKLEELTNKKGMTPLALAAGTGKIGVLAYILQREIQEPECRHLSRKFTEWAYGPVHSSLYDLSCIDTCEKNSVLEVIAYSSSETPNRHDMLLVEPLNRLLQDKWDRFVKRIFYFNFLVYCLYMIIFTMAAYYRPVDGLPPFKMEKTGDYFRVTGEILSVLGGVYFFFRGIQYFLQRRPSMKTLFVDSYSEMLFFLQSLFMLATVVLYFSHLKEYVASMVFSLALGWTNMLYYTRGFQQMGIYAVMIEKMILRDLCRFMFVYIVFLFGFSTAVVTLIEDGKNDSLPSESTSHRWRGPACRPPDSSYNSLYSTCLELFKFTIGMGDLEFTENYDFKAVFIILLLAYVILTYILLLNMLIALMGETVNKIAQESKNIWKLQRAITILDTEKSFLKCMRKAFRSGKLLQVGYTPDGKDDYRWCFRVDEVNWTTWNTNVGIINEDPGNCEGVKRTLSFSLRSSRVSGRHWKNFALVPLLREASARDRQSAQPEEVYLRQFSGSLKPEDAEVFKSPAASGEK
Experimental: Compounds were tested for their effect on TRPV1, TRPV2, and TRPV3. Methods were similar to those described in Example 15. Briefly, N2a cells were transfected with human TRPV1, TRPV2, or TRPV3. eGFP-transfection was used as control. For specific stimulation of TRPV1, 5 μM capsaicin was used. For stimulation of TRPV2, hypotonicity (260 mosmol/L) was used, based on previous reports of TRPV2 being osmotically responsive. N2a cells were not responsive to hypotonicity, and neither were control-transfected cells. For TRPV3-expressing cells, camphor (20% of a commercially available stock solution) was used. […] Stimulation and control protocols were applied as for TRPA1-expressing N2a cells as detailed above in Example 15.

[2] = system: WT mice, whisker-pad injection of 4% formalin; assay: Formalin-evoked trigeminal irritant pain, systemic (i.p.) compound, WT mice; assay type: in vivo, mouse; conditions: 10 mg/kg i.p.
Experimental: FIGS. 31A-31D: 16-8 and 16-19 effectively attenuate formalin-evoked trigeminal irritant pain. (FIG. 31A) Time-course of nocifensive behavior in WT mice following whisker-pad injection of 4% formalin. The mice were pre-injected (i.p., 10 mg/kg; 15 min before formalin) with GSK205, 16-8 or 16-19. Note effective reduction of nocifensive behavior in the late “neural” phase by compounds 16-8, 16-19, not by GSK205. (FIG. 31B) Cumulative response binned into 3 phases: acute phase (0-5 min), interphase (5-15 min), and late “neural” phase (15-45 min). […] (FIG. 31C) As in (FIG. 31A), but also including Trpv4^−/− mice. Compounds were applied i.p. 15 min before formalin challenge, at 10 mg/kg except established TRPA1 blocker, A967079 (25 mg/kg). […]
Compounds were tested for their effect in reducing pain using an in vivo pain model in mice. […] After injection, mice were immediately placed back into the chamber and the rubbing behavior was recorded by a private consumer-type video-camera for a 45 min observation period. The recording time was divided into 9 blocks of 5 min, and a nociceptive score was determined per block by measuring the time that the animals spent rubbing the injected area predominantly with the ipsilateral fore-paw and rarely with hind-paw. […]

TRPV2 = target: T2, TRPV2 (Mus musculus, UniProt Q9WTR1); assay: Ca++ imaging in N2a cells over-expressing TRPV2; assay type: cell-based; conditions: 5 μM, mouse isoform in N2a cells
T2 construct: expressed in transfected cells; host or cells: N2a cells, eGFP co-transfected
T2 sequence (Q9WTR1 whole entry, canonical isoform): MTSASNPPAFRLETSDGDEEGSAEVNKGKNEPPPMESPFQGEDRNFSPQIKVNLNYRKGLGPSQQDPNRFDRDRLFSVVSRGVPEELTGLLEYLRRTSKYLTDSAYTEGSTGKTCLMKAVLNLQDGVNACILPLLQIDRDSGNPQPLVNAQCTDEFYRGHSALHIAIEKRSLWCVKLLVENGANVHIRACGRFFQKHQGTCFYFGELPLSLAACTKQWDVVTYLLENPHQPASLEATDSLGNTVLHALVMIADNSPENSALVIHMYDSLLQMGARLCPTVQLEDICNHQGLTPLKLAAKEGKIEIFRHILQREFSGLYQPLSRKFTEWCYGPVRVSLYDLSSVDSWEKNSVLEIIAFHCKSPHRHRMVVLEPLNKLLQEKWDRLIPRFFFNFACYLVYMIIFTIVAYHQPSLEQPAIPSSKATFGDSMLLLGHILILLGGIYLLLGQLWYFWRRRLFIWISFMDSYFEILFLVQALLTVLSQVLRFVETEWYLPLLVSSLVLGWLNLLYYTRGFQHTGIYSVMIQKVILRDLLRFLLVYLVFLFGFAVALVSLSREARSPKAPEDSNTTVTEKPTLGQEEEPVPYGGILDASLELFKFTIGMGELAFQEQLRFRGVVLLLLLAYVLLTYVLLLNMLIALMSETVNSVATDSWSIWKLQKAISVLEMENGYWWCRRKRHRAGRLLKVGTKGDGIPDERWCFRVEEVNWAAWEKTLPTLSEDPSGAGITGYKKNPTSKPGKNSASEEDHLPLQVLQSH
Text: Mean±SEM is shown, ≥100 cells per condition. […] Plot generated from averaged peak ΔCa++ concentration of […] per data-point.

[3] = system: mice, UVB-exposed hind paws; assay: UVB-overexposure evoked nocifensive behavior, topical compound; assay type: in vivo, mouse; conditions: 0.5 mM in 40 μL
Experimental: Compounds were tested for their effect on nocifensive behavior (response to pain) following UVB overexposure. Behavioral tests were performed to evaluate the decrease in withdrawal thresholds in response to mechanical von Frey hair or thermal stimuli applied to hind paws. The Von-Frey apparatus (Ugo Basile) applied a mechanical stimulus with a flexible steel wire from underneath the hind paw. The force leading to withdrawal was determined. For the thermal stimuli test, paws were stimulated with heat from underneath applied by an infrared beam (Hargreave's test apparatus; Ugo Basile), and withdrawal latencies were recorded. The withdrawal thresholds were ascertained before and after UV exposure. Mice were exposed to UVB 3-5 days after the last application of tam/oil, using a Bio-Rad Gel Doc 2000 UV transilluminator (302 nm) for 5 min with an exposure of 600 mJ/cm^2. This represents 5-10 times the minimal erythema-inducing dose, in keeping with the rationale of inducing sunburn and studying sunburn-evoked pain.

SMILES | heart rate (EKG) [1] | alanine-amino-transferase (ALT) [1] | serum creatinin [1] | cellular toxicity vs inhibitory potency against TRPV4/TRPA1, factor (N2a cells) | effect on Ca2+ transience, TRPV1 (human TRPV1) | formalin-evoked pain behavior in the delayed (late, neural) phase [2] | inhibition of TRPV2 (TRPV2) | response to pain following UVB exposure [3] | cell viability time course at increasing concentrations (N2a cells)
CCN(CCc1ccc(Nc2nc(-c3ccccc3)cs2)cc1)Cc1ccccc1 [Compound 16-19] | did not detect differences and changes in heart rate | not significantly elevated | not significantly elevated | 50-100 | not affected | robust effect | did not inhibit | – | –
CN(CCc1ccc(Nc2nc(-c3cccnc3)cs2)cc1)Cc1ccccc1 [GSK205] | – | – | – | – | – | – | – | as effective as vehicle | –
CN(CCc1ccc(Nc2nc(-c3ccccc3)cs2)cc1)Cc1ccccc1 [Compound 16-8] | did not detect differences and changes in heart rate | not significantly elevated | not significantly elevated | 50-100 | not affected | significant attenuation | did not inhibit | especially effective | clear reduction at 40 and 80 μM
